Earlier results in patent publication US20110009373A1, “COMPOSITION COMPRISING A COMBINATION OF AN AROMATASE INHIBITOR, A PROGESTIN AND AN OESTROGEN AND ITS USE FOR THE TREATMENT OF ENDOMETRIOSIS” (ASTRAZENECA AB, priority 2003, published 2011).

Test system: endometriotic lesion
Settings: addition of oestrogen to letrozole; wild type mice and aromatase knockout mice

N#Cc1ccc(C(c2ccc(C#N)cc2)n2cncn2)cc1 [letrozole]
Endometriotic lesion sizes: increases in the endometriotic lesion sizes
